The target of the assay is Pim-1 kinase (Homo sapiens, UniProt P11309). Put plainly: Promega Kinase-Glo Pim-1 kinase inhibition assay.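 Note: in vitro Pim-1 reaction run 2 h at 30 °C, then leftover ATP measured by luciferase luminescence, where signal falls as kinase activity rises.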 Format: biochemical. The conditions noted are these: Table X; Kinase-Glo; read-out: IC50 on Pim1.
Chain of Pim-1 kinase (P11309 whole entry): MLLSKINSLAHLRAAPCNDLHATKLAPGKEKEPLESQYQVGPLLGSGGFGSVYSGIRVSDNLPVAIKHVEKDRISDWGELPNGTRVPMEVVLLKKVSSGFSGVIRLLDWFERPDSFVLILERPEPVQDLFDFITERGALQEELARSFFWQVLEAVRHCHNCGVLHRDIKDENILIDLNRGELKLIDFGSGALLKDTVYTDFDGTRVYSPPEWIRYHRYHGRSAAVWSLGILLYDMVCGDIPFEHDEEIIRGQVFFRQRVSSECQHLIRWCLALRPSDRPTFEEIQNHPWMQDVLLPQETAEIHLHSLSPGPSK
As to `C[C@]1(O)CC[C@H](Nc2ccn3ncc(-c4cccc(OC(F)(F)F)c4)c3n2)CC1` [Compound 8-48, 1-Methyl-4-((3-(3-(trifluoromethoxy)phenyl)pyrazolo[1,5-a]pyrimidin-5-yl)amino)-trans-cyclohexanol], the IC50 was 100 to 1000 nM.

Consider `CO[C@H]1CC[C@H](Nc2ccn3ncc(-c4cccc(OC(F)(F)F)c4)c3n2)CC1` [Compound 8-49, 4-(trans-Methoxycyclohexyl)-3-(3-(trifluoromethoxy)phenyl)pyrazolo[1,5-a]pyrimidin-5-amine], for which the half-maximal inhibitory concentration (IC50) is 100 to 1000 nM.

For the compound `CC(C)(O)[C@H]1CC[C@H](Nc2ccn3ncc(-c4cccc(OC(F)(F)F)c4)c3n2)CC1` [Compound 8-47], the half-maximal inhibitory concentration (IC50) lay within 100 to 1000 nM.

Turning to `COc1ccc(CNc2ccc3ncc(-c4cccc(OC(F)(F)F)c4)n3n2)cc1` [Compound 8-43, N-(4-Methoxybenzyl)-3-(3-(trifluoromethoxy)phenyl)imidazo[1,2-b]pyridazin-6-amine], the IC50 lay within 100 to 1000 nM.

As to `O=S1(=O)CCC(CNc2ccc3ncc(-c4cccc(C(F)(F)F)c4)n3n2)CC1` [Compound 8-34, 4-(((3-(3-(Trifluoromethyl)phenyl)imidazo[1,2-b]pyridazin-6-yl)amino)methyl)tetrahydro-2H-thiopyran 1,1-dioxide], the half-maximal inhibitory concentration (IC50) was 100 to 1000 nM.

As for `N[C@H]1CC[C@H](Nc2ccc3ncc(-c4cccc(Cl)c4)n3n2)CC1` [Compound 8-68], the IC50 lay in the range of 10 to 100 nM.

As for `N[C@H]1CC[C@H](Nc2ccc3ncc(-c4cccc(OC(F)(F)F)c4)n3n2)CC1` [Compound 8-8, (3-(3-(Trifluoromethoxy)phenyl)imidazo[1,2-b]pyridazin-6-yl)cyclohexane-trans-1,4-diamine], the IC50 was less than 10 nM.

Take `O=S1(=O)CCN(c2ccn3ncc(-c4cccc(C(F)(F)F)c4)c3n2)CC1` [Compound 8-60]: the IC50 lay within 1000 to 5000 nM.

With `O=S1(=O)CCC(CNc2ccc3ncc(-c4cccc(Cl)c4)n3n2)CC1` [Compound 8-40, 4-(((3-(3-Chlorophenyl)imidazo[1,2-b]pyridazin-6-yl)amino)methyl)tetrahydro-2H-thiopyran 1,1-dioxide], the IC50 lay in the range of 100 to 1000 nM.

In the case of `FC(F)(F)Oc1cccc(-c2cnc3ccc(NCC4CCSCC4)nn23)c1` [Compound 8-18, N-((tetrahydro-2H-thiopyran-4-yl)methyl)-3-(3-(trifluoromethoxy)phenyl)imidazo[1,2-b]pyridazin-6-amine], the concentration for half-maximal inhibition (IC50) was in the range of 1000 to 5000 nM.

As for `COCCOc1ccc2ncc(-c3cccc(OC(F)(F)F)c3)n2n1` [Compound 8-42, 6-(2-Methoxyethoxy)-3-(3-(trifluoromethoxy)phenyl)imidazo[1,2-b]pyridazine], the 50% inhibitory concentration (IC50) fell in the range of 1000 to 5000 nM.

In the case of `CC(C)(O)[C@H]1CC[C@H](Nc2ccn3ncc(-c4cccc(C(F)(F)F)c4)c3n2)CC1` [Compound 8-56], the IC50 lay in the range of 10 to 100 nM.

In the case of `CC(C)(O)[C@H]1CC[C@H](Nc2ccc3ncc(-c4cccc(Cl)c4)n3n2)CC1` [Compound 8-37], the IC50 was less than 10 nM.

As for `CO[C@H]1CC[C@H](Nc2ccc3ncc(-c4cccc(Cl)c4)n3n2)CC1` [Compound 8-38, 3-(3-Chlorophenyl)-N-(4-trans-methoxycyclohexyl)imidazo[1,2-b]pyridazin-6-amine], the concentration for half-maximal inhibition (IC50) was 10 to 100 nM.

Regarding `O=C1CC(CNc2ccc3ncc(-c4cccc(OC(F)(F)F)c4)n3n2)CCN1` (centres unmarked) [Compound 8-23, 4-(((3-(3-(Trifluoromethoxy)phenyl)imidazo[1,2-b]pyridazin-6-yl)amino)methyl)piperidin-2-one], the concentration for half-maximal inhibition (IC50) is 1000 to 5000 nM.

With `N[C@H]1CC[C@H](Nc2ccn3ncc(-c4cccc(OC(F)(F)F)c4)c3n2)CC1` [Compound 8-52, N-(3-(3-(Trifluoromethoxy)phenyl)pyrazolo[1,5-a]pyrimidin-5-yl)cyclohexane-1,4-trans-diamine], the IC50 is less than 10 nM.

`CC(C)(O)CNc1ccc2ncc(-c3cccc(OC(F)(F)F)c3)n2n1` [Compound 8-6, 2-Methyl-1-((3-(3-(trifluoromethoxy)phenyl)imidazo[1,2-b]pyridazin-6-yl)amino)propan-2-ol]: the IC50 was 10 to 100 nM.

Turning to `O=S1(=O)CCC(CNc2ccn3ncc(-c4cccc(OC(F)(F)F)c4)c3n2)CC1` [Compound 8-51, 4-(((3-(3-(Trifluoromethoxy)phenyl)pyrazolo[1,5-a]pyrimidin-5-yl)amino)methyl)tetrahydro-2H-thiopyran 1,1-dioxide], the concentration for half-maximal inhibition (IC50) was in the range of 100 to 1000 nM.

Take `CC(C)(O)[C@H]1CC[C@H](Nc2ccc3ncc(-c4cccc(C(F)(F)F)c4)n3n2)CC1` [Compound 8-31]: the IC50 was less than 10 nM.

Regarding `C[C@]1(O)CC[C@H](Nc2ccc3ncc(-c4cccc(OC(F)(F)F)c4)n3n2)CC1` [Compound 8-9, 1-Methyl-4-((3-(3-(trifluoromethoxy)phenyl)imidazo[1,2-b]pyridazin-6-yl)amino)-trans-cyclohexanol], the IC50 is 10 to 100 nM.

Take `O=S1(=O)CCC(Nc2ccc3ncc(-c4cccc(OC(F)(F)F)c4)n3n2)CC1` [Compound 8-14, 4-((3-(3-(Trifluoromethoxy)phenyl)imidazo[1,2-b]pyridazin-6-yl)amino)tetrahydro-2H-thiopyran 1,1-dioxide]: the half-inhibitory concentration (IC50) fell in the range of 1000 to 5000 nM.

In the case of `FC(F)(F)c1cccc(-c2cnc3ccc(NC4CCOCC4)nn23)c1` [Compound 8-33, N-(Tetrahydro-2H-pyran-4-yl)-3-(3-(trifluoromethyl)phenyl)imidazo[1,2-b]pyridazin-6-amine], the IC50 was 10 to 100 nM.

For the compound `FC(F)(F)Oc1cccc(-c2cnn3ccc(NC4CCOCC4)nc23)c1` [Compound 8-50, N-(Tetrahydro-2H-pyran-4-yl)-3-(3-(trifluoromethoxy)phenyl)pyrazolo[1,5-a]pyrimidin-5-amine], the IC50 lay within 100 to 1000 nM.

On to `O=C(CN1CCOCC1)N1CCC(CNc2ccc3ncc(-c4cccc(OC(F)(F)F)c4)n3n2)CC1` [Compound 8-21, 2-Morpholino-1-(4-(((3-(3-(trifluoromethoxy)phenyl)imidazo[1,2-b]pyridazin-6-yl)amino)methyl)piperidin-1-yl)ethanone], for which the IC50 was in the range of 10 to 100 nM.

Turning to `FC(F)(F)Oc1cccc(-c2cnc3ccc(NCC4CCOCC4)nn23)c1` [Compound 8-19, N-((tetrahydro-2H-pyran-4-yl)methyl)-3-(3-(trifluoromethoxy)phenyl)imidazo[1,2-b]pyridazin-6-amine], the half-maximal inhibitory concentration (IC50) is 10 to 100 nM.

Turning to `FC(F)(F)Oc1cccc(-c2cnc3ccc(NCCN4CCOCC4)nn23)c1` [Compound 8-44, N-(2-morpholinoethyl)-3-(3-(trifluoromethoxy)phenyl)imidazo[1,2-b]pyridazin-6-amine], the IC50 lay within 10 to 100 nM.

For the compound `O[C@H]1CC[C@H](Oc2ccc3ncc(-c4cccc(OC(F)(F)F)c4)n3n2)CC1` [Compound 8-4, 4-((3-(3-(Trifluoromethoxy)phenyl)imidazo[1,2-b]pyridazin-6-yl)oxy)-trans-cyclohexanol], the 50% inhibitory concentration (IC50) is less than 10 nM.

With `O=S1(=O)CCC(CNc2ccc3ncc(-c4cccc(OC(F)(F)F)c4)n3n2)CC1` [Compound 8-13, 4-(((3-(3-(Trifluoromethoxy)phenyl)imidazo[1,2-b]pyridazin-6-yl)amino)methyl)tetrahydro-2H-thiopyran 1,1-dioxide], the IC50 lay in the range of 100 to 1000 nM.

Take `C[C@]1(O)CC[C@H](Nc2ccc3ncc(-c4cccc(C(F)(F)F)c4)n3n2)CC1` [Compound 8-30, 1-Methyl-4-((3-(3-(trifluoromethyl)phenyl)imidazo[1,2-b]pyridazin-6-yl)amino)-trans-cyclohexanol]: the half-maximal inhibitory concentration (IC50) is 10 to 100 nM.

`CN(C)CC(=O)N1CCC(CNc2ccc3ncc(-c4cccc(OC(F)(F)F)c4)n3n2)CC1` [Compound 8-45, 2-(dimethylamino)-1-(4-(((3-(3-(trifluoromethoxy)phenyl)imidazo[1,2-b]pyridazin-6-yl)amino)methyl)piperidin-1-yl)ethanone]: the IC50 lay within 10 to 100 nM.

With `CC(C)(O)CCNc1ccc2ncc(-c3cccc(OC(F)(F)F)c3)n2n1` [Compound 8-3, 2-Methyl-4-((3-(3-(trifluoromethoxy)phenyl)imidazo[1,2-b]pyridazin-6-yl)amino)butan-2-ol], the half-inhibitory concentration (IC50) was in the range of 10 to 100 nM.

Consider `CO[C@H]1CC[C@H](Nc2ccc3ncc(-c4cccc(C(F)(F)F)c4)n3n2)CC1` [Compound 8-32, 4-(trans-Methoxycyclohexyl)-3-(3-(trifluoromethyl)phenyl)imidazo[1,2-b]pyridazin-6-amine], for which the IC50 lay in the range of 100 to 1000 nM.

Take `CC(C)(O)C(=O)N1CCC(CNc2ccc3ncc(-c4cccc(OC(F)(F)F)c4)n3n2)CC1` [Compound 8-20, 2-Hydroxy-2-methyl-1-(4-(((3-(3-(trifluoromethoxy)phenyl)imidazo[1,2-b]pyridazin-6-yl)amino)methyl)piperidin-1-yl)propan-1-one]: the IC50 lay in the range of 10 to 100 nM.

`N[C@H]1CCCN(c2ccc3ncc(-c4cccc(OC(F)(F)F)c4)n3n2)C1` [Compound 8-25, (S)-1-(3-(3-(Trifluoromethoxy)phenyl)imidazo[1,2-b]pyridazin-6-yl)piperidin-3-amine]: the half-inhibitory concentration (IC50) fell in the range of 10 to 100 nM.

On to `FC(F)(F)c1cccc(-c2cnn3ccc(NC4CCOCC4)nc23)c1` [Compound 8-58, N-(Tetrahydro-2H-pyran-4-yl)-3-(3-(trifluoromethyl)phenyl)pyrazolo[1,5-a]pyrimidin-5-amine], for which the half-maximal inhibitory concentration (IC50) is 100 to 1000 nM.

With `CO[C@H]1CC[C@H](Nc2ccn3ncc(-c4cccc(Cl)c4)c3n2)CC1` [Compound 8-64], the IC50 lay within 10 to 100 nM.

As for `O[C@@H]1CC[C@@H](Nc2ccc3ncc(-c4cccc(OC(F)(F)F)c4)n3n2)C1` [Compound 8-5, (1R,3R)3-((3-(3-(Trifluoromethoxy)phenyl)imidazo[1,2-b]pyridazin-6-yl)amino)cyclopentanol], the IC50 was in the range of 10 to 100 nM.

For the compound `CC(C)(O)[C@H]1CC[C@H](Nc2ccn3ncc(-c4cccc(Cl)c4)c3n2)CC1` [Compound 8-63], the half-inhibitory concentration (IC50) lay within 10 to 100 nM.

With `O=S1(=O)CCC(CNc2ccn3ncc(-c4cccc(C(F)(F)F)c4)c3n2)CC1` [Compound 8-59], the IC50 was 100 to 1000 nM.

`C[C@]1(O)CC[C@H](Nc2ccn3ncc(-c4cccc(Cl)c4)c3n2)CC1` [Compound 8-62]: the half-maximal inhibitory concentration (IC50) lay in the range of 100 to 1000 nM.

As to `CC(C)(O)CCOc1ccc2ncc(-c3cccc(OC(F)(F)F)c3)n2n1` [Compound 8-41, 2-Methyl-4-((3-(3-(Trifluoromethoxy)phenyl)imidazo[1,2-b]pyridazin-6-yl)oxy)butan-2-ol], the IC50 lay in the range of 100 to 1000 nM.

The values are drawn from patent US20120058997A1, “IMIDAZO[1,2-B]PYRIDAZINE AND PYRAZOLO[1,5-A]PYRIMIDINE DERIVATIVES AND THEIR USE AS PROTEIN KINASE INHIBITORS” (SuperGen, Inc., priority 2006, published 2012).
